The record followed here is patent US12570655B2, “Cysteine covalent modifiers of AKT1 and uses thereof” (Terremoto Biosciences, Inc., priority 2023, dated 2026).

Like-named read-outs stand apart in the source and are kept apart here.

Holding throughout (format): cell-based
One test deals with T1, AKT1 E17K (Homo sapiens, UniProt P31749, E17K).
T1 construct: expressed in transfected cells; host or cells: HEK293
Briefly: Live cell AKT1 E17K target engagement by NanoBRET competitive probe displacement. The settings on record: HEK293 cells transfected with kinase-NanoLuciferase fusion, 2 h at 37° C. On the procedure: (§1) Determining Live Cell AKT1 E17K, AKT1 WT, and AKT2 Target Engagement by NanoBRET Competitive Probe Displacement.
(§2) Live cell target engagement assays were performed as described (Vasta, J. D. et al. Cell Chem Biol 2018, 25(11), 206-214). Briefly, HEK293 cells were transfected with plasmids encoding kinase-NanoLuciferase fusion proteins overnight. Cells were then treated with serial dilutions of compound and an ˜EC50 concentration of fluorescently-tagged ATP-competitive tracer (Promega). After incubation for 2 h at 37° C., luciferase substrate and extracellular luciferase inhibitor were added to all wells, and luminescent intensity at 460 nm and 600 nm were measured on a multimode plate-reader. The ratio of E600/E460 was calculated to give the tracer engagement signal (BRET). IC50 values were calculated by fitting BRET values to a log(inhibitor) vs. response Hill equation.
Background: In BRET a luciferase serves as donor, and the signal depends on an acceptor being close.

A further test deals with T2, AKT2 (Homo sapiens, UniProt P31751).
T2 construct: expressed in transfected cells; host or cells: HEK293
T2 sequence (P31751 whole entry): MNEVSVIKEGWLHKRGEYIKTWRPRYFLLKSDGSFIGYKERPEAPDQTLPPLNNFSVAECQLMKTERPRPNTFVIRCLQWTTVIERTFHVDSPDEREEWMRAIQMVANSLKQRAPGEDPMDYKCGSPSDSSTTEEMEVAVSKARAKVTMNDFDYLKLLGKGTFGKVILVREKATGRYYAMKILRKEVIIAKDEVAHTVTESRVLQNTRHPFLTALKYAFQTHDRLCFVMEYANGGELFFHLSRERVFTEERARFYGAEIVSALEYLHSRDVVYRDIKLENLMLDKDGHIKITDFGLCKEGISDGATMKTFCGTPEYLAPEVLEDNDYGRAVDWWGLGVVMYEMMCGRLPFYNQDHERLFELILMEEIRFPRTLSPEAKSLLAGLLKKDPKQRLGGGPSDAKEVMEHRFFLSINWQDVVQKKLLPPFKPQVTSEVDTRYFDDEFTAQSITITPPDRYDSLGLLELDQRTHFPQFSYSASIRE
Briefly: Live cell AKT2 target engagement by NanoBRET competitive probe displacement. To be noted: HEK293 cells transfected with kinase-NanoLuciferase fusion, 2 h at 37° C. On the procedure: as §1, §2

Test [1] relates to LAPC4 prostate cancer cells. As to the kind of experiment: Antiproliferative effects in LAPC4 cells (CellTiter Glo). To be noted: LAPC4 cells (AKT1 E17K allele), read-out: LAPC4 proliferation IC50. On the procedure:
Antiproliferative Effects in LAPC4 Cells.
LAPC4 prostate cancer cells (Klein, K. A. et al. Nat Med 1997, 3, 402-408), which express the AKT1 E17K allele, were grown in IMDM media (Hyclone) supplemented with 12% FBS+1% P/S. To assess compound effects on growth, 1,000 cells/well were seeded in 384 well assay plates, incubated with compound dilutions dissolved in DMSO. After 72 h, intracellular ATP content was assessed with CellTiter Glo reagent (Promega) according to the manufacturer's instructions. IC50 values were calculated by fitting luminescence values to a log(inhibitor) vs. response Hill equation.
(ATP-based viability assays read luminescence as a measure of living cells.)

The target in a further test is T3, AKT1 WT (Homo sapiens, UniProt P31749).
T3 construct: expressed in transfected cells; host or cells: HEK293
T3 sequence (P31749 whole entry): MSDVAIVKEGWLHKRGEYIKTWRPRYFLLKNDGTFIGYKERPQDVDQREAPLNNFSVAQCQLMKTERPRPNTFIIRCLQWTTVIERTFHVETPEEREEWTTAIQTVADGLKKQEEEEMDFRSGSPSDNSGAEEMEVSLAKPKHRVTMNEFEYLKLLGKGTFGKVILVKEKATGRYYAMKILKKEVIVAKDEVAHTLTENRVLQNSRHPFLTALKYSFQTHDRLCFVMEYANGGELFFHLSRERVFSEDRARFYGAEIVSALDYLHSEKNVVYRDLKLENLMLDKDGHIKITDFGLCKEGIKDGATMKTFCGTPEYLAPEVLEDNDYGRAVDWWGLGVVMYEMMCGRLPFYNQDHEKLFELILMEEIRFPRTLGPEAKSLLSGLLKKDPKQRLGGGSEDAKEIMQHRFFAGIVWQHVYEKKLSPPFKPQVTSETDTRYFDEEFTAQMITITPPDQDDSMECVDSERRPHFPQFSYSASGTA
Briefly: Live cell AKT1 WT target engagement by NanoBRET competitive probe displacement. The settings on record: HEK293 cells transfected with kinase-NanoLuciferase fusion, 2 h at 37° C. On the procedure: as §1, §2

T1 sequence (P31749 whole entry E17K): as the sequence (P31749 whole entry) above, with E17K counted along it

`C=CC(=O)N1CCC(N[C@H]2CCc3cc(-n4c(-c5cccnc5N)nc5ccc(-n6cccn6)nc54)ccc32)CC1CC#N` (single isomer, unassigned) [Example 339, 2-((2*,4*)-1-acryloyl-4-(((S)-5-(2-(2-aminopyridin-3-yl)-5-(1H-pyrazol-1-yl)-3H-imidazo[4,5-b]pyridin-3-yl)-2,3-dihydro-1H-inden-1-yl)amino)piperidin-2-yl)acetonitrile]: the values for the IC50 at AKT1 E17K and at AKT2 were 32.7 nM and 78.8 nM, respectively.
For the compound `C=CC(=O)N1CCC(N[C@@H]2CCc3cc(-n4c(-c5cccnc5N)nc5ccc(-n6cccn6)nc54)ccc3C2)CC1` [Example 295, 1-(4-{[(2R)-6-[2-(2-aminopyridin-3-yl)-5-(pyrazol-1-yl)imidazo[4,5-b]pyridin-3-yl]-1,2,3,4-tetrahydronaphthalen-2-yl]amino}piperidin-1-yl)prop-2-en-1-one], the IC50 on AKT1 E17K was 9.37 nM; in test [1] (Homo sapiens, LAPC4, 72 h), 17.9 nM; at AKT1 WT, 23.5 nM.
With `C=CC(=O)N1CCC(N[C@@H]2c3ccc(-n4c(-c5cccnc5N)nc5ccc(-n6cccn6)nc54)cc3CC2F)CC1C(F)F` (single isomer, unassigned) [Example 303, 1-((2*,4*)-4-(((1R,2*)-5-(2-(2-aminopyridin-3-yl)-5-(1H-pyrazol-1-yl)-3H-imidazo[4,5-b]pyridin-3-yl)-2-fluoro-2,3-dihydro-1H-inden-1-yl)amino)-2-(difluoromethyl)piperidin-1-yl)prop-2-en-1-one], the figures for the IC50 (at AKT1 E17K; in test [1] (72 h); on AKT1 WT) were 10.9 nM, 15.1 nM and 22.1 nM, respectively.
On to `C=CC(=O)N1CCN(CC2CCc3cc(-n4c(-c5cccnc5N)nc5ccc(-n6cccn6)nc54)ccc32)CC1` (stereo not shown) [Example 174, 1-(4-((5-(2-(2-aminopyridin-3-yl)-5-(1H-pyrazol-1-yl)-3H-imidazo[4,5-b]pyridin-3-yl)-2,3-dihydro-1H-inden-1-yl)methyl)piperazin-1-yl)prop-2-en-1-one], for which the IC50 amounted to 8.46 nM on AKT1 E17K; 89 nM in test [1] (Homo sapiens, LAPC4, 72 h); 65.5 nM on AKT1 WT.
On the same counts, the results for `C=CC(=O)N1CCC(N[C@H]2CCc3cc(-n4c(-c5cccnc5N)nc5ccc(N6CCCC6)nc54)ccc32)CC1` [Example 170, 1-(4-{[(1S)-5-[2-(2-aminopyridin-3-yl)-5-(pyrrolidin-1-yl)imidazo[4,5-b]pyridin-3-yl]-2,3-dihydro-1H-inden-1-yl]amino}piperidin-1-yl)prop-2-en-1-one] are 12.5 nM, 160 nM and 114 nM.
Take `C=CC(=O)N1CCC(N[C@@H]2c3ccc(-n4c(-c5ccccc5)nc5ccc(-n6ccc(F)n6)nc54)cc3CC2F)CC1` (stereo partly drawn) [Example 332, 1-(4-(((1R,2*)-2-fluoro-5-(5-(3-fluoro-1H-pyrazol-1-yl)-2-phenyl-3H-imidazo[4,5-b]pyridin-3-yl)-2,3-dihydro-1H-inden-1-yl)amino)piperidin-1-yl)prop-2-en-1-one]: the IC50 at AKT1 E17K was 27.9 nM; at AKT2, 481 nM.
Regarding `C=CC(=O)NC1CCN(C2CCc3cc(-n4c(-c5cccnc5N)nc5ccc(-n6cccn6)nc54)ccc32)CC1` (single isomer, unassigned) [Example 193, N-{1-[(1*)-5-[2-(2-aminopyridin-3-yl)-5-(pyrazol-1-yl)imidazo[4,5-b]pyridin-3-yl]-2,3-dihydro-1H-inden-1-yl]piperidin-4-yl}prop-2-enamide], the IC50 at AKT1 E17K is 10.2 nM; in test [1] (Homo sapiens, LAPC4, 72 h), 58.4 nM; at AKT1 WT, 71.5 nM.
For `C=CC(=O)N1CCC(N[C@@H]2c3ccc(-n4c(-c5ccccc5F)nc5ccc(-n6cccn6)nc54)cc3CC2F)CC1` (single isomer, unassigned) [Example 299, 1-(4-(((1R,2*)-2-fluoro-5-(2-(2-fluorophenyl)-5-(1H-pyrazol-1-yl)-3H-imidazo[4,5-b]pyridin-3-yl)-2,3-dihydro-1H-inden-1-yl)amino)piperidin-1-yl)prop-2-en-1-one], the IC50 amounted to 9.32 nM at AKT1 E17K; 603 nM in test [1] (Homo sapiens, LAPC4, 72 h); 1180 nM at AKT1 WT.
`C=CC(=O)N1CCC(N[C@@H]2c3ccc(-n4c(-c5cccnc5N)nc5ccc(-n6cccn6)nc54)cc3CC2F)CC1C(F)F` (single isomer, unassigned) [Example 301, 1-((2*,4*)-4-(((1R,2*)-5-(2-(2-aminopyridin-3-yl)-5-(1H-pyrazol-1-yl)-3H-imidazo[4,5-b]pyridin-3-yl)-2-fluoro-2,3-dihydro-1H-inden-1-yl)amino)-2-(difluoromethyl)piperidin-1-yl)prop-2-en-1-one]: the results for the IC50 (at AKT1 E17K; in test [1] (72 h); at AKT1 WT) were 8.86 nM, 172 nM and 105 nM, respectively.
On to `C=CC(=O)N1CCC(N[C@H]2CCc3cc(-n4c(-c5cccnc5N)nc5cc(-n6cccn6)cnc54)ccc32)CC1` [Example 217, 1-(4-{[(1S)-5-[2-(2-aminopyridin-3-yl)-6-(pyrazol-1-yl)imidazo[4,5-b]pyridin-3-yl]-2,3-dihydro-1H-inden-1-yl]amino}piperidin-1-yl)prop-2-en-1-one], for which the IC50 at AKT1 E17K came out at 321 nM; in test [1] (Homo sapiens, LAPC4, 72 h) it was 3470 nM; on AKT1 WT, 1870 nM.
On the same counts, the results for `C=CC(=O)N1CCC(N[C@H]2CCc3cc(-n4c(-c5cccnc5N)nc5cc(-c6cccnc6)cnc54)ccc32)CC1` [Example 190, (S)-1-(4-((5-(2-(2-aminopyridin-3-yl)-6-(pyridin-3-yl)-3H-imidazo[4,5-b]pyridin-3-yl)-2,3-dihydro-1H-inden-1-yl)amino)piperidin-1-yl)prop-2-en-1-one] are 99.4 nM, 1320 nM and 735 nM.
Take `C=CC(=O)N1CCC(N[C@H]2CCc3cc(-n4c(-c5cccnc5N)nc5ccc(-n6cccn6)nc54)ccc32)C[C@@H]1C(F)F` (single isomer, unassigned) [Example 212, 1-((2R,4*)-4-(((S)-5-(2-(2-aminopyridin-3-yl)-5-(1H-pyrazol-1-yl)-3H-imidazo[4,5-b]pyridin-3-yl)-2,3-dihydro-1H-inden-1-yl)amino)-2-(difluoromethyl)piperidin-1-yl)prop-2-en-1-one]: the figures for the IC50 (at AKT1 E17K; in test [1] (72 h); on AKT1 WT) were 6.9 nM, 36.6 nM and 36.1 nM, respectively.
In the case of `C=CC(=O)N1CCC(N[C@H]2CCc3cc(-n4c(-c5cccnc5N)nc5cc(-c6ccncc6)cnc54)ccc32)CC1` [Example 191, (S)-1-(4-((5-(2-(2-aminopyridin-3-yl)-6-(pyridin-4-yl)-3H-imidazo[4,5-b]pyridin-3-yl)-2,3-dihydro-1H-inden-1-yl)amino)piperidin-1-yl)prop-2-en-1-one], the IC50 came to 221 nM on AKT1 E17K; 3370 nM in test [1] (Homo sapiens, LAPC4, 72 h); 1250 nM on AKT1 WT.
Taken in the same sequence, the figures for `C=CC(=O)N1CCC(N[C@H]2CCc3cc(-n4c(-c5cccnc5N)nc5ccc(C(C)C)nc54)ccc32)CC1` [Example 242, 1-(4-{[(1S)-5-[2-(2-aminopyridin-3-yl)-5-isopropylimidazo[4,5-b]pyridin-3-yl]-2,3-dihydro-1H-inden-1-yl]amino}piperidin-1-yl)prop-2-en-1-one] were 30.4 nM, 756 nM and 1430 nM.
On to `C=CC(=O)N1C[C@H]2CCC[C@@H](C1)C2N[C@H]1CCc2cc(-n3c(-c4cccnc4N)nc4ccc(-n5cccn5)nc43)ccc21` (single isomer, unassigned) [Example 188, 1-((1R,5S,9*)-9-(((S)-5-(2-(2-aminopyridin-3-yl)-5-(1H-pyrazol-1-yl)-3H-imidazo[4,5-b]pyridin-3-yl)-2,3-dihydro-1H-inden-1-yl)amino)-3-azabicyclo[3.3.1]nonan-3-yl)prop-2-en-1-one], for which the IC50 at AKT1 E17K is 5.65 nM; in test [1] (72 h) it was 56.3 nM; on AKT1 WT, 35 nM.
As for `C=CC(=O)N1CCC(NC2CCc3cc(-n4c(-c5cccnc5N)nc5ccc(C(F)F)nc54)ccc32)CC1` (stereo in doubt) [Example 196, 1-(4-{[(1R)-5-[2-(2-aminopyridin-3-yl)-5-(difluoromethyl)imidazo[4,5-b]pyridin-3-yl]-?3-dihydro-1H-inden-1-yl]amino}piperidin-1-yl)prop-2-en-1-one], the IC50 at AKT1 E17K was 96.6 nM; in test [1] (Homo sapiens, LAPC4, 72 h), 1210 nM; at AKT1 WT, 1990 nM.
For the compound `C=CC(=O)N1CCN(N(C)C2CCc3cc(-n4c(-c5cccnc5N)nc5ccc(-n6cccn6)nc54)ccc32)CC1` (single isomer, unassigned) [Example 179, 1-(4-{[(1*)-5-[2-(2-aminopyridin-3-yl)-5-(pyrazol-1-yl)imidazo[4,5-b]pyridin-3-yl]-2,3-dihydro-1H-inden-1-yl](methyl)amino}piperazin-1-yl)prop-2-en-1-one], the IC50 on AKT1 E17K came to 203 nM; in test [1] (72 h) it was 3520 nM; at AKT1 WT, 2890 nM.
